Measurements published in US9439430B2, “Method of controlling resistant harmful plants” (priority 2012, dated 2016).

Key:
CHEAL = test: Greenhouse test, post-emergence (PO) application, foliar effect; type: in vivo, Chenopodium album; conditions: (A) 50, (B) 20, mixture 50 + 20 g of AS/ha, 3 weeks after application
Source text: (§1) The 1:1 mixture of the two soil types was used specifically for cultivating small-seeded dicotyledonous weed since the standard field soil on its own tends to silt up, which may have an adverse effect on the emergence of small-seeded weeds. The resistances mentioned in the tables were confirmed beforehand in standard monitoring experiments. Nevertheless, the origins examined may have additional, hitherto unconfirmed resistances to various mechanisms of action.
(§2) The pots were then cultivated in a greenhouse (12-16 h light, temperature day 20-22° C., night 15-18° C.) until the time of application. The pots were treated at various BBCH stages of the seeds/plants on a laboratory track sprayer with spray liquors comprising the compositions according to the invention, mixtures of the prior art or the individual components. Application of the active compounds or active compound combinations and wetting agents formulated as WG, WP, EC or otherwise was carried out at the appropriate growth stages of the plants. The amount of water used for spray application was 100-600 l/ha. After the treatment, the plants were returned to the greenhouses and fertilized and watered as required. The pots were cultivated in a greenhouse (12-16 h light, temperature day 20-22° C., night 15-18° C.).
(§3) 3 weeks after the application, the foliar effect was evaluated on a scale of 0-100%:
(§4) 0%=no noticeable effect compared to untreated plants
(§5) 100%=full effect compared to untreated plants
(§6) The following abbreviations were used: • BBCH the BBCH code provides information about the morphological development stage of a plant. Officially, the abbreviation denotes the Biologische Bundesanstalt, Bundessortenamt and CHemische Industrie [Federal Biological Institute for Agriculture and Forestry, Federal Office for Crop Plant Varieties, Chemical Industry]. The range of BBCH 00-10 denotes the germination stages of the seeds until surface penetration. The range of BBCH 11-25 denotes the leaf development stages until stocking (corresponds to the number of tillers or side-shoots). • PE pre-emergence soil application; BBCH of the seeds/plants 00-10 • PO post-emergence application on the green parts of the plants; BBCH of the plants 11-25 • IU soil loamy silt—standard field soil • l/ha liters per hectare • S sensitive—the weed populations are sensitive to the active compounds tested • TSR target-site resistance. The weed populations comprise biotypes having a site-of-action-specific resistance, i.e. the binding site at the site of action is modified as a result of natural mutations in the gene sequence so that the active compounds are no longer able to bind, or bind in an unsatisfactory manner, and are therefore no longer able to act. • NTR non-target-site herbicide resistance; this is differentiated, inter alia, into EMR (Enhanced Metabolic Resistance) (the weed populations comprise biotypes having metabolic resistance, i.e. the plants are capable of metabolizing the active compounds more quickly via enzyme complexes, i.e. the active compounds are degraded more quickly in the plant), into reduced penetration into the plant, reduced translocation in the plant, accelerated excretion. […]

ERICA [1] = test: Greenhouse test, pre-emergence (PE) soil application; type: in vivo, Erigeron canadensis; parameters: key: % effect: 0 = no effect, 100 = full effect vs untreated; conditions: group (B) compound alone, 20 g of AS/ha
Source text: as §1, §2, §3, §4, §5, §6

APESV = test: Greenhouse test, post-emergence (PO) application, foliar effect; type: in vivo, Apera spica-venti; conditions: (A) 50, (B) 20, mixture 50 + 20 g of AS/ha, 3 weeks after application
Source text: as §1, §2, §3, §4, §5, §6

ERIBO [2] = test: Greenhouse test, pre-emergence (PE) soil application; type: in vivo, Erigeron bonariensis; parameters: key: % effect: 0 = no effect, 100 = full effect vs untreated; conditions: group (B) compound alone, 20 g of AS/ha
Source text: as §1, §2, §3, §4, §5, §6

BRODI [3] = test: Greenhouse test, post-emergence (PO) application, foliar effect; type: in vivo, Bromus diformis; conditions: (A) 50, (B) 20, mixture 50 + 20 g of AS/ha, 3 weeks after application
Source text: as §1, §2, §3, §4, §5, §6

ERICA [4] = test: as above; type: in vivo, Erigeron canadensis; conditions: (A) 50, (B) 20, mixture 50 + 20 g of AS/ha, 3 weeks after application
Source text: as §1, §2, §3, §4, §5, §6

AMATA [5] = test: as above; type: in vivo, Amaranthus rudis; conditions: (A) 50, (B) 20, mixture 50 + 20 g of AS/ha, 3 weeks after application
Source text: as §1, §2, §3, §4, §5, §6

KCHSC = test: Greenhouse test, pre-emergence (PE) soil application; type: in vivo, Kochia scoparia; parameters: key: % effect: 0 = no effect, 100 = full effect vs untreated; conditions: group (B) compound alone, 20 g of AS/ha
Source text: as §1, §2, §3, §4, §5, §6

BIDSU = test: as above; type: in vivo, Bidens subalternans; conditions: group (B) compound alone, 20 g of AS/ha
Source text: as §1, §2, §3, §4, §5, §6

ERIBO [6] = test: Greenhouse test, post-emergence (PO) application, foliar effect; type: in vivo, Erigeron bonariensis; conditions: (A) 50, (B) 20, mixture 50 + 20 g of AS/ha, 3 weeks after application
Source text: as §1, §2, §3, §4, §5, §6

AMAPA = test: as above; type: in vivo, Amaranthus palmeri; conditions: AMAPA resistant - group B (TSR), C1 (TSR) and G (NTR), (A) 50, (B) 20, mixture 50 + 20 g of AS/ha, 3 weeks after application
Source text: as §1, §2, §3, §4, §5, §6

[7] = tested on: TTTTT (all resistant and sensitive biotypes); test: Greenhouse test, PE application, mean over all resistant and sensitive biotypes; type: in vivo; conditions: (A) 12.5, (B) 20, mixture 12.5 + 20 g of AS/ha
Source text: as §1, §2, §3, §4, §5, §6

AMATA [8] = test: Greenhouse test, pre-emergence (PE) soil application; type: in vivo, Amaranthus rudis; parameters: key: % effect: 0 = no effect, 100 = full effect vs untreated; conditions: group (B) compound alone, 20 g of AS/ha
Source text: as §1, §2, §3, §4, §5, §6

[9] = tested on: TTTTT (all resistant and sensitive biotypes); test: Greenhouse test, PO application, mean over all resistant and sensitive biotypes; type: in vivo; conditions: (A) 50, (B) 20, mixture 50 + 20 g of AS/ha
Source text: as §1, §2, §3, §4, §5, §6

BRODI [10] = test: Greenhouse test, pre-emergence (PE) soil application; type: in vivo, Bromus diformis; parameters: key: % effect: 0 = no effect, 100 = full effect vs untreated; conditions: group (B) compound alone, 20 g of AS/ha
Source text: as §1, §2, §3, §4, §5, §6

[11] = mean of sensitive biotypes (n = 11)

## COC(=O)c1csc(C)c1S(=O)(=O)NC(=O)n1nc(OC)n(C)c1=O [(B5), thiencarbazone-methyl]
CHEAL; CHEAL resistant - group B (TSR), C1 (NA) and G (NTR)
  foliar effect: 70%
CHEAL; CHEAL sensitive
  foliar effect: 70%
ERICA [1]
  effect on ERICA resistant - group B (NA) and G (NTR): 0
  effect on ERICA sensitive: 60
APESV; APESV resistant - group B (TSR, NTR) and K1/3 (NA)
  foliar effect: 0%
APESV; APESV sensitive
  foliar effect: 100%
ERIBO [2]
  effect on ERIBO resistant - group B (NA) and G (NTR): 0
  effect on ERIBO sensitive: 60
BRODI [3]; BRODI resistant - group A (TSR), B (NTR) and G (NTR)
  foliar effect: 50%
BRODI [3]; BRODI sensitive
  foliar effect: 95%
ERICA [4]; ERICA resistant - group B (NA) and G (NTR)
  foliar effect: 60%
ERICA [4]; ERICA sensitive
  foliar effect: 70%
AMATA [5]; AMATA resistant - group B (TSR), C1 (TSR)
  foliar effect: 40%
AMATA [5]; AMATA sensitive
  foliar effect: 30%
KCHSC
  effect on KCHSC resistant - group B (TSR): 0
  effect on KCHSC sensitive: 85
BIDSU
  effect on BIDSU sensitive: 75
ERIBO [6]; ERIBO resistant - group B (NA) and G (NTR)
  foliar effect: 60%
ERIBO [6]; ERIBO sensitive
  foliar effect: 70%
AMAPA
  foliar effect: 0%
[7]; mean of resistant biotypes (n = 16)
  TTTTT resistant mean (effect): 22%
[7]; [11]
  TTTTT sensitive mean (effect): 73%
AMATA [8]
  effect on AMATA resistant - group B (TSR), C1 (TSR): 40
  effect on AMATA sensitive: 60
[9]; mean of resistant biotypes (n = 17 or n = 15)
  TTTTT resistant mean (effect): 25%
[9]; [11]
  TTTTT sensitive mean (effect): 76%
BRODI [10]
  effect on BRODI resistant - group A (TSR), B (NTR) and G (NTR): 70
  effect on BRODI sensitive: 70
